In ChEMBL document CHEMBL1136113, “Synthesis and inhibitory activity of ubiquinone-acetogenin hybrid inhibitor with bovine mitochondrial complex I” (Bioorg Med Chem Lett, 2003):

molecular target: Mitochondrial complex I; NADH oxidoreductase (Bos taurus, UniProt P25708+P52505); experiment: Inhibition of complex I activity was determined by NADH oxidase assay using bovine heart submitochondrial particles.; assay type: protein-complex assay
Sequence (P25708 21-464 limits assumed, other chains not shown): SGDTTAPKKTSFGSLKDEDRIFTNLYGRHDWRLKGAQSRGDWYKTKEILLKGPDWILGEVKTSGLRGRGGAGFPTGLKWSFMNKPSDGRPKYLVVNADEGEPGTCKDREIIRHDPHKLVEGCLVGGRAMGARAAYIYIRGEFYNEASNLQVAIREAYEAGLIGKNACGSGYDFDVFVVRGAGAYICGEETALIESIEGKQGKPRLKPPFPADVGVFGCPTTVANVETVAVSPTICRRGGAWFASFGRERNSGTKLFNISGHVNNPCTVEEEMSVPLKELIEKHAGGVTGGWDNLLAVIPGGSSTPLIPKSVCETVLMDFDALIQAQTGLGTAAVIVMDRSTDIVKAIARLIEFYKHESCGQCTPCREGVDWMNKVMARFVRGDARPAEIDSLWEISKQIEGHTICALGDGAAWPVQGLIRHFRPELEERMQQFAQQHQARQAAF

Structure (SMILES) | IC50 [nM]
CCCCCCCCCC[C@@H](O)[C@H]1CC[C@H]([C@H]2CC[C@H]([C@H](O)CCCCCCCCCCCCC3=C[C@H](C)OC3=O)O2)O1 [ISODESAACETYLUVARICIN] | 0.9
CCCCCCCCCC[C@@H](O)[C@@H]1CC[C@@H]([C@@H]2CC[C@@H]([C@H](O)CCCCCCCCCC(O)CC3=CC(C)OC3=O)O2)O1 (stereo not given in full) [BULLATACIN] | 0.9
CCCCCCCCCC[C@@H](O)[C@H]1CC[C@H]([C@H]2CC[C@H]([C@H](O)CCCCCCCCCCCCc3c(C)c(OC)c(OC)c(OC)c3OC)O2)O1 | 280
CCCCCCCCCC[C@@H](O)[C@H]1CC[C@H]([C@H]2CC[C@H]([C@H](O)CCCCCCCCCCCCC3=C(C)C(=O)C(OC)=C(OC)C3=O)O2)O1 | 1.2
CCCCC[C@@H](O)[C@H]1CC[C@H]([C@H]2CC[C@H]([C@H](O)CCCCC)O2)O1 | 4500
